Measurements published in patent US9486471B2, “Combination therapy for the treatment of cancer” (McMaster University, priority 2012, dated 2016).

Experiments:
[1] = system: AML-OCI2 and AML-OCI3 cell lines; assay: Volumetric cell counting of AML cell lines treated with DR antagonists and agonists; type: cell-based, human; details: 72 h, serum-free conditions
Protocol: Volumetric Cell Counting. The number of AML-OCI2 and AML-OCI3 cells present after 72 h treatment with DR antagonists (FIG. 16b) and agonist (FIG. 16c-d) were counted by measuring the number of events within a fixed volume following the grating strategy defined by forward scatter and side scatter clustering, 7AAD− and Hoechst+.
Due to the bioavailability of dopamine in fetal bovine serum (FBS) (Little et al., 2002), serum-free conditions were employed to assess the role of DRs in AML.

[2] = system: HL-60, MV4-11 and OCI-AML3 leukemic cell lines; assay: Normalized cell number of leukemic cell lines after 72 h incubation (Examples 1, 3); type: cell-based, human
Protocol: All three lines are leukemic cell lines. […] Each condition had three replicates.
The dopamine receptor antagonist and phenothiazine-related compound chlorpromazine was also investigated for effects on the AML cell lines HL-60, MV4-11 and OCI-AML3. Testing was performed as set out in Example 1.

[3] = system: AML LSCs (CD45+CD33+ blast engraftment); assay: Xenotransplantation of compound-treated AML cells into NSG mice; type: in vivo
Protocol: Xenotransplantation Assays. NOD.Cg-Prkdc^scid II2rg^tm1Wjl/SzJ adult mice (NSG) were sub-lethally irradiated with 315 rads 24 hours prior transplantation. 0.8-1.0×10^7 AML MNCs or 1.5-1.8×10^5 CB lin-hematopoietic cells treated with compound or DMSO-vehicle for 24 h were injected via tail vein (IV). After 6-10 weeks, animals were culled, and the BM and spleen were analyzed for the presence of human cells by flow cytometry (LSRII, BD) and data was analyzed using FlowJo software (Tree Star Inc). For secondary HSPC transplants, equal number of engrafted human cells from CB lin− transplants were injected IV in adult irradiated NSG mice as described for primary transplants.
To delineate whether the inhibition of AML-blasts detected in vitro was due to the compounds affecting the neoplastic stem cell compartment, xenotransplantation studies (Dick, 2008) that functionally define LSCs and hematopoietic stem cells (HSCs) were conducted (FIG. 12).

[4] = system: AML cell lines HL-60, OCI-AML2 and OCI-AML3
Protocol: All three lines are leukemic cell lines. HL-60 was derived from promyelocytic AML whereas MV 4-11 and OCI-AML3 are representative of AML. Each compound was incubated with the cells for 72 h. The control was DMSO (ie the vehicle used for the compound) for 72 h. Each condition had three replicates.
A series of dopamine receptor agonists, D3-antagonists, DR1 & 5-antagonists and multi-receptor antagonists were tested for cytotoxicity against three AML cell lines HL-60, OCI-AML2 and OCI-AML3. Testing was performed as set out in Example 1.

[5] = system: neoplastic hPSCs (v1H9-Oct4-GFP); assay: Flow cytometry of Oct4 in neoplastic hPSCs; type: cell-based, human
[6] = system: normal HSCs and progenitors; assay: Methocellulose colony formation of normal HSCs (Example 2); type: cell-based, human; details: 10 μM
Protocol: Normal HSCs and progenitors were sourced from either mobilized peripheral blood or umbilical cord blood of health patients. Primary AML cells were taken from patients diagnosed with AML. Both normal HSCs and primary AML cells were cultured under standard in vitro methocellulose assay conditions (see http://www.stemcell.com/en/Products/All-Products/MethoCult-H4434-Classic.aspx as well as Clinton Campbell et al. The human stem cell hierarchy is defined by a functional dependence on Mcl-1 for self-renewal capacity. Blood 116 (9) 1433-1442 (Jun. 4, 2010), hereby incorporated by reference) for at least 14 days before the number of colonies were recorded.

[7] = system: hematopoietic stem and progenitor cells (HSPC, CB lin-); assay: Methylcellulose colony-forming assay, HSPC (CB lin-); details: 24 h treatment, colonies scored after 14 days
Protocol: AML/HPSC Cell Culture. AML cell lines, namely, OCI-AML2 (M4), OCI-AML3 (M4), HL-60 (M2) and MV-4-11(M5) were cultured in RPMI (Gibco) supplemented with 5% heated-inactivated FBS (HyClone). For DR agonist studies with R(+)-7-Hydroxy-DPAT hydrobromide (Sigma), serum-free conditions were employed instead due to the prevalence of dopamine in FBS (Little et al., 2002). AML patient blasts were cultured in IMDM supplemented with 5% heated inactivated FBS (HyClone), 5 ng/mL IL3 (R&D systems), 5×10^−5 M β-mercaptoethanol (Sigma) and BIT (StemCell Technologies). HSC media contained IMDM supplemented with 1% BSA (Sigma), 100 ng/mL SCF (R&D systems), 100 ng/mL Flt-3L (R&D systems) and 20 ng/mL TPO (R&D systems). Patient HSPC and AML samples were treated with compound or DMSO-vehicle (0.1%) for 24 h prior to CFU plating or xenotransplantation studies.
Methylcellulose Colony-Forming Assay. AML patient or CB lin− cells were cultured 24 hours in the presence of compound or DMSO-vehicle (0.1%) control. AML cells were plated at 50 000 cells/mL in Methocult GF H4434 (Stem Cell Technologies). CB lin− cells were plated at 1000 cells/mL in Methocult GF H4434 (Stem Cell Technologies). Colonies were scored after 14 days of culture using standard morphological criteria.

[8] = system: CD14+ cells in primary AML; assay: Flow cytometry frequency of CD14+ cells in primary AML; type: cell-based, human; details: 10 μM, 72 h; control 100%

With CSc1ccc2c(c1)N(CCC1CCCCN1C)c1ccccc1S2 (racemic) [thioridazine, 10-{2-[(RS)-1-Methylpiperidin-2-yl]ethyl}-2-methylsulfanylphenothiazine] as the compound, how does the “number of AML cells” value [1] read?
The value was “reduced the number of AML cells”.

And the normalized cell number ([2]; 0.1 μM)?
The normalized cell number was “little effect”.

What about the normalized cell number ([2]; 1 μM) of the same compound?
Its normalized cell number is “little effect”.

And the “normalized cell number / toxicity” value ([2]; 10 μM)?
Its value is “reduced to almost zero”.

And the “leukemic disease-initiating AML LSC capacity” value ([3]; 10 μM, 24 h ex vivo treatment)?
Its value is “significantly reduce”.

What about the “level of leukemic engraftment of secondary transplant recipients” value ([3]; secondary recipients, in the absence of thioridazine) of the same compound?
Its value is “no difference”.

And the “cytotoxicity of AML cell lines” value [4]?
The value was “significant effect”.

What about the cell count ([4]; 72 h, relative to control) of the same compound?
The cell count was “eradicate the AML cell lines”.

And the cell number [5]?
The cell number was “reductions”.

And the “levels of Oct4” value [5]?
The value was “reductions”.

And the “cell pellets of CFU colonies” value ([6]; HSCs)?
Its value is “pelleted cells are still visible”.

What about the “colony forming potential of normal HSCs” value ([6]; DMSO control about 100, at least 14 days) of the same compound?
The value was “about 66 total colonies”.

And the HSPC multilineage differentiation [7]?
The HSPC multilineage differentiation was “retaining”.

And the “normalized frequency of CD14+ cells” value [8]?
The value was 20%.
